Laboratory results taken from patent publication US10233182B2, “Substituted spirocyclic inhibitors of autotaxin” (X-Rx, Inc., priority 2014, dated 2019).

Molecular target: Autotaxin (Homo sapiens (Human), UniProt Q13822)
Test: Autotaxin LPC Cascade Assay
Assay type: biochemical
Details: Autotaxin 5 nM, LPC 100 μM, choline oxidase/HRP/Ampliflu Red fluorescence read-out, 2% DMSO, RT; read-out: IC50 ATX Activity
How it was run: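 Choline liberated from LPC by autotaxin during 1 h, after a 10-min RT compound preincubation, was converted through choline oxidase/HRP to a fluorescent Ampliflu Red product.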

Compound | IC50 [nM]
COc1cc(N2CN(C)C(=O)C23CCN(C(=O)[C@H](NC(=O)c2cc(C(F)(F)F)ccc2F)C(C)C)CC3)ccc1C(=O)O [Example 151] | < 500
CC(C)[C@@H](NC(=O)c1cc(C(F)(F)F)ccc1F)C(=O)N1CCC2(CC1)C(=O)N(C)C(=O)N2C1CCCC1 [Example 125, (R)—N-(1-(1-Cyclopentyl-3-methyl-2,4-dioxo-1,3,8-triazaspiro[4.5]decan-8-yl)-3-methyl-1-oxobutan-2-yl)-2-fluoro-5-(trifluoromethyl)benzamide] | < 500
Cc1nc2ccc(CN3C(=O)N(C)C(=O)C34CCN(C(=O)[C@H](NC(=O)c3cc(C(F)(F)F)ccc3F)C(C)C)CC4)cc2o1 [Example 118, (R)-2-Fluoro-N-(3-methyl-1-(3-methyl-1-((2-methylbenzo[d]oxazol-6-yl)methyl)-2,4-dioxo-1,3,8-triazaspiro[4.5]decan-8-yl)-1-oxobutan-2-yl)-5-(trifluoromethyl)benzamide] | < 500
CC(C)[C@@H](NC(=O)c1cc(C(F)(F)F)ccc1F)C(=O)N1CCC2(CC1)C(=O)N(C)C(=O)N2Cc1ncccn1 [Example 111, (R)-2-Fluoro-N-(3-methyl-1-(3-methyl-2,4-dioxo-1-(pyrimidin-2-ylmethyl)-1,3,8-triazaspiro[4.5]decan-8-yl)-1-oxobutan-2-yl)-5-(trifluoromethyl)benzamide] | ≥ 1000
Cc1cc(F)cc(C(=O)N[C@@H](C(=O)N2CCC3(CC2)C(=O)N(CC(=O)O)CN3c2ccccc2)C(C)C)c1 [Example 176, (R)-2-(8-(2-(3-Fluoro-5-methylbenzamido)-3-methylbutanoyl)-4-oxo-1-phenyl-1,3,8-triazaspiro[4.5]decan-3-yl)acetic Acid] | 500 to 1000
CC(C)[C@@H](NC(=O)c1cc(C(F)(F)F)ccc1F)C(=O)N1CCC2(CC1)C(=O)N(C)CN2c1ccc(S(C)(=O)=O)cc1 [Example 205, (R)-2-Fluoro-N-(3-methyl-1-(3-methyl-1-(4-(methylsulfonyl)phenyl)-4-oxo-1,3,8-triazaspiro[4.5]decan-8-yl)-1-oxobutan-2-yl)-5-(trifluoromethyl)benzamide] | < 500
CC(C)[C@@H](NC(=O)c1cc(C(F)(F)F)ccc1F)C(=O)N1CCC2(CC1)C(=O)N(C)C(=O)N2Cc1ccc2oc(=O)n(C)c2c1 [Example 105, (R)-2-Fluoro-N-(3-methyl-1-(3-methyl-1-((3-methyl-2-oxo-2,3-dihydrobenzo[d]oxazol-5-yl)methyl)-2,4-dioxo-1,3,8-triazaspiro[4.5]decan-8-yl)-1-oxobutan-2-yl)-5-(trifluoromethyl)benzamide] | < 500
CC(C)[C@@H](NC(=O)c1cc(OC(F)(F)F)ccc1F)C(=O)N1CCC2(CC1)C(=O)N(C)C(=O)N2c1ccc(C(=O)O)cc1 [Example 167, (R)-4-(8-(2-(2-Fluoro-5-(trifluoromethoxy)benzamido)-3-methylbutanoyl)-3-methyl-2,4-dioxo-1,3,8-triazaspiro[4.5]decan-1-yl)benzoic Acid] | < 500
CC(C)[C@@H](NC(=O)c1cc(C(F)(F)F)ccc1F)C(=O)N1CCC2(CC1)C(=O)N(C)C(=O)N2c1ccc2c(cnn2C)c1 [Example 12, (R)-2-Fluoro-N-(3-methyl-1-(3-methyl-1-(1-methyl-1H-indazol-5-yl)-2,4-dioxo-1,3,8-triazaspiro[4.5]decan-8-yl)-1-oxobutan-2-yl)-5-(trifluoromethyl)benzamide] | < 500
CCc1cccc(C(=O)N[C@@H](C(=O)N2CCC3(CC2)C(=O)N(C)CN3c2ccccc2)[C@H](C)OC)c1 [Example 135, 3-Ethyl-N-((2R,3S)-3-methoxy-1-(3-methyl-4-oxo-1-phenyl-1,3,8-triazaspiro[4.5]decan-8-yl)-1-oxobutan-2-yl)benzamide] | < 500
CC(C)[C@@H](NC(=O)c1cc(C(F)(F)F)ccc1F)C(=O)N1CCC2(CC1)C(=O)N(C)CN2c1ccc(NC2COC2)cc1 [Example 218, (R)-2-Fluoro-N-(3-methyl-1-(3-methyl-1-(4-(oxetan-3-ylamino)phenyl)-4-oxo-1,3,8-triazaspiro[4.5]decan-8-yl)-1-oxobutan-2-yl)-5-(trifluoromethyl)benzamide] | < 500
Cc1cccc(C(=O)N[C@@H](C(=O)N2CCC3(CC2)C(=O)N(C)CN3c2cccc(C(N)=O)c2)C(C)C)c1F [Example 146, (R)—N-(1-(1-(3-Carbamoylphenyl)-3-methyl-4-oxo-1,3,8-triazaspiro[4.5]decan-8-yl)-3-methyl-1-oxobutan-2-yl)-2-fluoro-3-methylbenzamide] | ≥ 1000
COC1CCC(N2C(=O)N(C)C(=O)C23CCN(C(=O)[C@H](NC(=O)c2cc(C(F)(F)F)ccc2F)C(C)C)CC3)CC1 (stereo partly drawn) [Example 241, (R)-2-Fluoro-N-(1-(1-(4-methoxycyclohexyl)-3-methyl-2,4-dioxo-1,3,8-triazaspiro[4.5]decan-8-yl)-3-methyl-1-oxobutan-2-yl)-5-(trifluoromethyl)benzamide] | ≥ 1000
CC(C)[C@@H](NC(=O)c1cc(C(F)(F)F)ccc1F)C(=O)N1CCC2(CC1)C(=O)N(C)C(=O)N2c1ccn(C)n1 [Example 16, (R)-2-Fluoro-N-(3-methyl-1-(3-methyl-1-(1-methyl-1H-pyrazol-3-yl)-2,4-dioxo-1,3,8-triazaspiro[4.5]decan-8-yl)-1-oxobutan-2-yl)-5-(trifluoromethyl)benzamide] | ≥ 1000
CC(C)[C@@H](NC(=O)c1cc(C(F)(F)F)ccc1F)C(=O)N1CCC2(CC1)C(=O)N(C)CN2c1ccc2[nH]ncc2c1 [Example 214, (R)—N-(1-(1-(1H-Indazol-5-yl)-3-methyl-4-oxo-1,3,8-triazaspiro[4.5]decan-8-yl)-3-methyl-1-oxobutan-2-yl)-2-fluoro-5-(trifluoromethyl)benzamide] | < 500
CCc1ccc(F)c(C(=O)N[C@@H](C(=O)N2CCC3(CC2)C(=O)N(CC#N)CN3c2ccccc2)C(C)C)c1 [Example 178, (R)—N-(1-(3-(Cyanomethyl)-4-oxo-1-phenyl-1,3,8-triazaspiro[4.5]decan-8-yl)-3-methyl-1-oxobutan-2-yl)-5-ethyl-2-fluorobenzamide] | < 500
CC(C)[C@@H](NC(=O)C(C)(C)C)C(=O)N1CCC2(CC1)C(=O)N(C)C(=O)N2c1ccc2[nH]ncc2c1 [Example 232, (R)—N-(1-(1-(1H-Indazol-5-yl)-3-methyl-2,4-dioxo-1,3,8-triazaspiro[4.5]decan-8-yl)-3-methyl-1-oxobutan-2-yl)pivalamide] | ≥ 1000
CC(C)[C@@H](NC(=O)c1cc(C(F)(F)F)ccc1F)C(=O)N1CCC2(CC1)C(=O)N(C)C(=O)N2c1ccc(F)cc1 [Example 182, (R)-2-Fluoro-N-(1-(1-(4-fluorophenyl)-3-methyl-2,4-dioxo-1,3,8-triazaspiro[4.5]decan-8-yl)-3-methyl-1-oxobutan-2-yl)-5-(trifluoromethyl)benzamide] | < 500
Cc1cccc(C(=O)N[C@@H](C(=O)N2CCC3(CC2)COC(=O)N3c2ccccc2)C(C)C)c1 [Example 217, (R)-3-Methyl-N-(3-methyl-1-oxo-1-(2-oxo-1-phenyl-3-oxa-1,8-diazaspiro[4.5]decan-8-yl)butan-2-yl)benzamide] | ≥ 1000
